Laboratory results from patent US20250002507A1, “7,8-DIHYDRO-5H-1,6-NAPHTHYRIDINE DERIVATIVES AS POSITIVE ALLOSTERIC MODULATORS OF THE MUSCARINIC ACETYLCHOLINE RECEPTOR M4 FOR TREATING NEUROLOGICAL AND PSYCHIATRIC DISORDERS” (Vanderbilt University, priority 2021, published 2025).
Where two headings read alike, the source gives them in different places.

Target: T1, Human M4 (Homo sapiens, UniProt P08173)
T1 construct: expressed in transfected cells
T1 sequence (P08173 1-479): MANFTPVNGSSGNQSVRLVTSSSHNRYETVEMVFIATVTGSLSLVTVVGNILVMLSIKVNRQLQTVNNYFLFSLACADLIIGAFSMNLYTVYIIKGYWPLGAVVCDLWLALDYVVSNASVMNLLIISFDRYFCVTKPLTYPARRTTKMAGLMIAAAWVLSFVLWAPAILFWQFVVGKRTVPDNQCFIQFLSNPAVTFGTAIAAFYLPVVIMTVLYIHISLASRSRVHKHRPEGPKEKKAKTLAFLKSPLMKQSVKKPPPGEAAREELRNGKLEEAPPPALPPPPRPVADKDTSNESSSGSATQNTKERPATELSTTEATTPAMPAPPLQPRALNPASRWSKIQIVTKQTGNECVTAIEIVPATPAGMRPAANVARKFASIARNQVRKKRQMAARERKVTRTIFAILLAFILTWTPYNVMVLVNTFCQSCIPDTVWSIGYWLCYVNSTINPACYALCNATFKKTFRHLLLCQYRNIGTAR
Assay: mAChR M4 cell-based functional assay (calcium flux, potentiation of EC20 acetylcholine response), hM4-Gqi5 CHO-K1 cells
Conditions: for Emax at 30 µM: CHO-K1, % ACh maximum at 30 μM; for EC50: calcium flux, read-out: Human M4 EC50
Outline: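 CHO-K1 cells stably expressing human M4 with chimeric Gqi5, loaded with Fluo-4 AM 50 min at 37 °C; calcium flux read by FDSS. 11-point 1:3 compound curves added, then EC20 acetylcholine at 144 s; potentiation of the EC20 response fitted by four-parameter logistic to give EC50 and Emax.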

[1] = hM4-Gqi5 CHO-K1 cells, PAM of EC20 acetylcholine
[2] = Table 3, Human M4, read-out: Emax (% ACh maximum at 30 μM)
[3] = Table 3, potentiation of EC20 acetylcholine response, CHO-K1 cells
[4] = Table 4, Human M4, read-out: Emax (% ACh maximum at 30 μM)
[5] = Table 4, potentiation of EC20 acetylcholine response, CHO-K1 cells

Row | SMILES | Emax at 30 µM (human M4, read-out: Emax) [%] | EC50 [1] [nM] | Emax at 30 µM [2] [%] | EC50 [3] [nM] | other results
1 | Cc1cc2nccn2nc1N1CCc2ncc(-c3c(C)nn(C)c3C)cc2C1 [Compound 109, 6-(7-methylimidazo[1,2-b]pyridazin-6-yl)-3-(1,3,5-trimethylpyrazol-4-yl)-7,8-dihydro-5H-1,6-naphthyridine] | 81 | 450 |  |  | 
2 | Cc1c(N2CCc3ncc(-c4ccc(N5CCCC(F)C5)nc4)cc3C2)nn2cnnc2c1C (stereo not shown) [Compound 216, 6-(7,8-dimethyl-[1,2,4]triazolo[4,3-b]pyridazin-6-yl)-3-(6-(3-fluoropiperidin-1-yl)pyridin-3-yl)-5,6,7,8-tetrahydro-1,6-naphthyridine] |  |  | 82 | 224 | 
3 | Cc1c(N2CCc3ncc(Nc4cccc(F)c4F)cc3C2)nn2cnnc2c1C [Compound 49, N-(2,3-difluorophenyl)-6-(7,8-dimethyl-[1,2,4]triazolo[4,3-b]pyridazin-6-yl)-7,8-dihydro-5H-1,6-naphthyridin-3-amine] | 82 | 82.4 |  |  | 
4 | Cc1c(N2CCc3ncc(OCC4CC4)cc3C2)nn2cnnc2c1C [Compound 261, 3-(cyclopropylmethoxy)-6-(7,8-dimethyl-[1,2,4]triazolo[4,3-b]pyridazin-6-yl)-5,6,7,8-tetrahydro-1,6-naphthyridine] |  |  | 90 | 331 | 
5 | Cc1c(N2Cc3cc(C(F)(F)F)cnc3C(C)C2)nn2cnnc2c1C (stereo not shown) [Compound 246, 6-(7,8-dimethyl-[1,2,4]triazolo[4,3-b]pyridazin-6-yl)-8-methyl-3-(trifluoromethyl)-5,6,7,8-tetrahydro-1,6-naphthyridine] |  |  | 90 | 408 | 
6 | Cc1c(N2CCc3ncc(O)cc3C2)nn2cnnc2c1C [Compound 220, 6-(7,8-dimethyl-[1,2,4]triazolo[4,3-b]pyridazin-6-yl)-5,6,7,8-tetrahydro-1,6-naphthyridin-3-ol] |  |  |  | 1370 | Emax (CHO-K1, read-out: Emax (% ACh maximum at 30 μM)): 81%
7 | Cc1cc2nnc(C(F)(F)F)n2nc1N1CCc2ncc(N3CCOc4ncccc43)cc2C1 [Compound 324, 1-(6-(7-methyl-3-(trifluoromethyl)-[1,2,4]triazolo[4,3-b]pyridazin-6-yl)-5,6,7,8-tetrahydro-1,6-naphthyridin-3-yl)-2,3-dihydro-1H-pyrido[2,3-b][1,4]oxazine] |  |  |  |  | Emax at 30 µM [4]: 111%; EC50 [5]: 153 nM
8 | Cc1ccc(Oc2cnc3c(c2)CN(c2nn4cnnc4cc2C)CC3)c(F)c1 [Compound 310, 3-(2-fluoro-4-methylphenoxy)-6-(7-methyl-[1,2,4]triazolo[4,3-b]pyridazin-6-yl)-5,6,7,8-tetrahydro-1,6-naphthyridine] |  |  |  |  | Emax at 30 µM [4]: 81%; EC50 [5]: 182 nM
9 | Cc1cnccc1Nc1cnc2c(c1)CN(c1nn3cnnc3c(C)c1C)CC2 [Compound 365, 6-(7,8-dimethyl-[1,2,4]triazolo[4,3-b]pyridazin-6-yl)-N-(3-methylpyridin-4-yl)-5,6,7,8-tetrahydro-1,6-naphthyridin-3-amine] |  |  |  |  | Emax at 30 µM [4]: 63%; EC50 [5]: 112 nM
10 | Cc1c(N2CCc3ncc(Oc4ccc(F)cc4)cc3C2)nn2cnnc2c1C [Compound 4, 6-(7,8-dimethyl-[1,2,4]triazolo[4,3-b]pyridazin-6-yl)-3-(4-fluorophenoxy)-7,8-dihydro-5H-1,6-naphthyridine] | 87 | 322 |  |  | 
11 | Cc1c(N2CCc3ncc(-n4ccc5ccccc54)cc3C2)nn2c(C(F)(F)F)nnc2c1C [Compound 248, 6-(7,8-dimethyl-3-(trifluoromethyl)-[1,2,4]triazolo[4,3-b]pyridazin-6-yl)-3-(1H-indol-1-yl)-5,6,7,8-tetrahydro-1,6-naphthyridine] |  |  | 58 | 2310 | 
12 | Cc1c(N2CCc3ncc(N4CCCC4)cc3C2)nn2c(C(F)(F)F)nnc2c1C [Compound 275, 6-(7,8-dimethyl-3-(trifluoromethyl)-[1,2,4]triazolo[4,3-b]pyridazin-6-yl)-3-(pyrrolidin-1-yl)-5,6,7,8-tetrahydro-1,6-naphthyridine] |  |  | 74 | 933 | 
13 | COc1ccc(Nc2cnc3c(c2)CN(c2nn4cnnc4c(C)c2C)CC3)c(F)c1F [Compound 27, N-(2,3-difluoro-4-methoxy-phenyl)-6-(7,8-dimethyl-[1,2,4]triazolo[4,3-b]pyridazin-6-yl)-7,8-dihydro-5H-1,6-naphthyridin-3-amine] | 77 | 597 |  |  | 
14 | Cc1nn(C)cc1-c1cnc2c(c1)CN(c1nn3c(C(F)(F)F)nnc3c(C)c1C)CC2 [Compound 94, 3-(1,3-dimethylpyrazol-4-yl)-6-[7,8-dimethyl-3-(trifluoromethyl)-[1,2,4]triazolo[4,3-b]pyridazin-6-yl]-7,8-dihydro-5H-1,6-naphthyridine] | 100 | 175 |  |  | 
15 | Cc1cc2nncn2nc1N1CCc2ncc(CC(F)(F)F)cc2C1 [Compound 334, 6-(7-methyl-[1,2,4]triazolo[4,3-b]pyridazin-6-yl)-3-(2,2,2-trifluoroethyl)-5,6,7,8-tetrahydro-1,6-naphthyridine] |  |  |  |  | Emax at 30 µM [4]: 74%; EC50 [5]: 234 nM
16 | Cc1cc(Nc2cnc3c(c2)CN(c2nn4cnnc4cc2C)CC3)c(F)cn1 [Compound 362, N-(5-fluoro-2-methylpyridin-4-yl)-6-(7-methyl-[1,2,4]triazolo[4,3-b]pyridazin-6-yl)-5,6,7,8-tetrahydro-1,6-naphthyridin-3-amine] |  |  |  |  | Emax at 30 µM [4]: 97%; EC50 [5]: 51 nM
17 | Cc1c(N2CCc3ncc(-c4ccc(F)nc4)cc3C2)nn2c(C(F)(F)F)nnc2c1C [Compound 245, 6-(7,8-dimethyl-3-(trifluoromethyl)-[1,2,4]triazolo[4,3-b]pyridazin-6-yl)-3-(6-fluoropyridin-3-yl)-5,6,7,8-tetrahydro-1,6-naphthyridine] |  |  | 80 | 680 | 
18 | Cc1c(N2CCc3ncc(-c4cncc(C#N)c4)cc3C2)nn2cnnc2c1C [Compound 40, 5-[6-(7,8-dimethyl-[1,2,4]triazolo[4,3-b]pyridazin-6-yl)-7,8-dihydro-5H-1,6-naphthyridin-3-yl]pyridine-3-carbonitrile] | 69 | 716 |  |  | 
19 | Cc1c(N2CCc3ncc(C(=O)N4CC(C)(C)C4)cc3C2)nn2cnnc2c1C [Compound 123, (3,3-dimethylazetidin-1-yl)-[6-(7,8-dimethyl-[1,2,4]triazolo[4,3-b]pyridazin-6-yl)-7,8-dihydro-5H-1,6-naphthyridin-3-yl]methanone] | 77 | 4770 |  |  | 

More lines, main results first:

Row | Emax at 30 µM (human M4, read-out: Emax) [%] | EC50 [1] [nM] | Emax at 30 µM [2] [%] | EC50 [3] [nM] | SMILES | other results
20 | 89 | 188 |  |  | Cc1nn(C)c(C)c1-c1cnc2c(c1)CN(c1nn3c(C)nnc3c(C)c1C)CC2 [Compound 87, 3-(1,3,5-trimethylpyrazol-4-yl)-6-(3,7,8-trimethyl-[1,2,4]triazolo[4,3-b]pyridazin-6-yl)-7,8-dihydro-5H-1,6-naphthyridine] | 
21 | 69 | 1180 |  |  | Cc1cc2nccn2nc1N1CCc2ncc(-c3ccn(C)n3)cc2C1 [Compound 111, 6-(7-methylimidazo[1,2-b]pyridazin-6-yl)-3-(1-methylpyrazol-3-yl)-7,8-dihydro-5H-1,6-naphthyridine] | 
22 |  |  | 103 | 90 | Cc1c(N2CCc3ncc(C(F)F)cc3C2)nn2cnnc2c1C [Compound 189, 3-(difluoromethyl)-6-(7,8-dimethyl-[1,2,4]triazolo[4,3-b]pyridazin-6-yl)-5,6,7,8-tetrahydro-1,6-naphthyridine] | 
23 | 90 | 496 |  |  | Cc1c(N2CCc3ncc(-c4cnn(CC5CC5)c4)cc3C2)nn2c(C(F)(F)F)nnc2c1C [Compound 95, 3-[1-(cyclopropylmethyl)pyrazol-4-yl]-6-[7,8-dimethyl-3-(trifluoromethyl)-[1,2,4]triazolo[4,3-b]pyridazin-6-yl]-7,8-dihydro-5H-1,6-naphthyridine] | 
24 | 87 | 568 |  |  | Cc1cc2nccn2nc1N1CCc2ncc(-c3cnn(C4CCNCC4)c3)cc2C1 [Compound 150, 6-(7-methylimidazo[1,2-b]pyridazin-6-yl)-3-[1-(4-piperidyl)pyrazol-4-yl]-7,8-dihydro-5H-1,6-naphthyridine] | 
25 |  |  | 96 | 86 | Cc1c(N2CCc3ncc(Oc4cc(F)ccc4F)cc3C2)nn2cnnc2c1C [Compound 303, 3-(2,5-difluorophenoxy)-6-(7,8-dimethyl-[1,2,4]triazolo[4,3-b]pyridazin-6-yl)-5,6,7,8-tetrahydro-1,6-naphthyridine] | 
26 |  |  | 93 | 53 | Cc1c(N2CCc3ncc(C4CC4)cc3C2)nn2cnnc2c1C [Compound 200, 3-cyclopropyl-6-(7,8-dimethyl-[1,2,4]triazolo[4,3-b]pyridazin-6-yl)-5,6,7,8-tetrahydro-1,6-naphthyridine] | 
